Test results: PMC8570587 (Medicinal chemistry research : an international journal for …, 2021)

Assays:
ORAC antioxidant assay = format: physicochemical; conditions: read-out: ORAC antioxidant EC50; positive control
recombinant human MAO-B = target: T1, recombinant human MAO-B (Homo sapiens, UniProt P27338); assay: MAO-B enzyme inhibition assay; format: biochemical
T1 sequence (P27338 1-520): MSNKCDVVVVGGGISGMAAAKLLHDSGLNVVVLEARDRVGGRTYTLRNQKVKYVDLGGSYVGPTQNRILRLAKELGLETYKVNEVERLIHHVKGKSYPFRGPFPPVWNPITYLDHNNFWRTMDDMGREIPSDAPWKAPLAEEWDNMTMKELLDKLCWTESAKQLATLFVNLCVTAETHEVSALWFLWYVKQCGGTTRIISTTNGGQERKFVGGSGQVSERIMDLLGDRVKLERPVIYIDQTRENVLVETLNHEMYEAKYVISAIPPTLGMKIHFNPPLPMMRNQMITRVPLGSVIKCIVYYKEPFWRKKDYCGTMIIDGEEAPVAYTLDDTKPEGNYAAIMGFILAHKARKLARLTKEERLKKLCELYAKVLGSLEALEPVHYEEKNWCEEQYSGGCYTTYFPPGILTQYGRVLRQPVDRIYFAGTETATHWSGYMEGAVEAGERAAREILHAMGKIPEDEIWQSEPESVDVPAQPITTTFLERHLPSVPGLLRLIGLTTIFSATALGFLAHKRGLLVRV

| Compound | EC50 (ORAC antioxidant assay) [µM] | IC50 (recombinant human MAO-B) [µM] |
| --- | --- | --- |
| O=C1O[C@H]([C@@H](O)CO)C(O)=C1O [Vitamin C] | 25.9 | – |
| NS(=O)(=O)Cc1noc2ccccc12 [Zonisamide] | – | 22.6 |
